This passage reports IC50 results from patent US9624224B2, “Inhibitors of Bruton's tyrosine kinase” (Pharmacyclics LLC, priority 2013, dated 2017).

What is called IC50 is the midpoint of a concentration-inhibition curve.

Common to all, as to format: biochemical
Test [1] deals with T1, BTK (Homo sapiens, UniProt Q06187).
T1 construct: purified from insect cells as a full-length construct containing a N-terminal 6×-His tag; His6 (N); made in house; host or cells: insect cells (baculovirus, Sf21)
T1 sequence (Q06187 whole entry): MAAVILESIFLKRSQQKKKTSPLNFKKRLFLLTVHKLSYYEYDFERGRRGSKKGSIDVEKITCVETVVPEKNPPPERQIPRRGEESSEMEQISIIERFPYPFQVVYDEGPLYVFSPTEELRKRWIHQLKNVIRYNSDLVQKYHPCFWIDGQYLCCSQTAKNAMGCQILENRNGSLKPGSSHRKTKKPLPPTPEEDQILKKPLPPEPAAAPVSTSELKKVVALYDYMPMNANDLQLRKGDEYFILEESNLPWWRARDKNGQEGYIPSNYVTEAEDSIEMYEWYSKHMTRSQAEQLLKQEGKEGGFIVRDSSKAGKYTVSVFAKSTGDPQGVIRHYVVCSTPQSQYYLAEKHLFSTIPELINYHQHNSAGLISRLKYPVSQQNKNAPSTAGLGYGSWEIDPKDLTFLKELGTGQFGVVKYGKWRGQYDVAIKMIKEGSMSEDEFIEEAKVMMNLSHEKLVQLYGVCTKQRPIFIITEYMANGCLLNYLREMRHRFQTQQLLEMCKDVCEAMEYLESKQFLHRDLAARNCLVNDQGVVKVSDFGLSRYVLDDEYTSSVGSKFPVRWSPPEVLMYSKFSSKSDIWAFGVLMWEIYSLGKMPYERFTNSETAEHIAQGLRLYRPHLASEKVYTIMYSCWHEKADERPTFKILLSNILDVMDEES
The test can be described thus: Btk in vitro inhibitory activity (TR-FRET, mobility shift or radiometric filter binding kinase assay). The settings on record: determined using one of the methods outlined in Example 47a, 47b, and 47c. In a few lines: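 Full-length N-His-tagged human Btk from insect cells, 8 nM, preincubated 15 min with inhibitor and 0.2 mg/mL poly-Glu-Tyr (4:1) in pH 7.5 Hepes/MgCl2 buffer, then 1 μM ATP for 120 min at RT; radiometric P81 filter read-out. Alternatives: TR-FRET at [ATP]=Km (0.5 nM Btk, IC50 from Ki(app)) or mobility-shift PSR with 12-point 3× curves, 4-parameter fit.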
(In general: TR-FRET usually uses a lanthanide donor and a delayed reading to cut background.)

Test [2] addresses EGFR (Homo sapiens, UniProt P00533). The test can be described thus: EGFR kinase inhibition (in vitro kinase assay).
The target of test [3] is Lck (Homo sapiens, UniProt P06239). The test can be described thus: Lck kinase inhibition (in vitro kinase assay). Here is the method:
Btk kinase activity is determined using a time-resolved fluorescence resonance energy transfer (TR-FRET) methodology. Measurements are performed in a reaction volume of 50 μL using 96-well assay plates. […] The reaction is quenched by the addition of 1.2 equivalents of EDTA (relative to divalent cation) in 25 μL of 1× Lance buffer (Perkin-Elmer). Streptavidin-APC (Perkin-Elmer) and Eu-labeled p-Tyr100 antibody (Perkin-Elmer) in 1× Lance buffer are added in a 25 μL volume to give final concentrations of 100 nM and 2.5 nM, respectively, and the mixture is allowed to incubate for one hour. The TR-FRET signal is measured on a multimode plate reader with an excitation wavelength (λEx) of 330 nm and detection wavelengths (λEm) of 615 and 665 nm. Activity is determined by the ratio of the fluorescence at 665 nm to that at 615 nm. For each compound, enzyme activity is measured at various concentrations of compound. Negative control reactions are performed in the absence of inhibitor in replicates of six, and two no-enzyme controls are used to determine baseline fluorescence levels. Inhibition constants, Ki(app), ware obtained using the program BatchKi (Kuzmic et al. (2000), Anal. Biochem. 286:45-50). IC50s are obtained according to the equation: IC50={Ki(app)/(1+[ATP]/Km^ATP)}+[E]total/2;
For all kinases, [ATP]=Km^ATP, [Btk]total=0.5 nM and [Lck]total=6 nM.

The target in test [4] is T2, Jak3 (Homo sapiens, UniProt P52333).
T2 sequence (P52333 1-1124): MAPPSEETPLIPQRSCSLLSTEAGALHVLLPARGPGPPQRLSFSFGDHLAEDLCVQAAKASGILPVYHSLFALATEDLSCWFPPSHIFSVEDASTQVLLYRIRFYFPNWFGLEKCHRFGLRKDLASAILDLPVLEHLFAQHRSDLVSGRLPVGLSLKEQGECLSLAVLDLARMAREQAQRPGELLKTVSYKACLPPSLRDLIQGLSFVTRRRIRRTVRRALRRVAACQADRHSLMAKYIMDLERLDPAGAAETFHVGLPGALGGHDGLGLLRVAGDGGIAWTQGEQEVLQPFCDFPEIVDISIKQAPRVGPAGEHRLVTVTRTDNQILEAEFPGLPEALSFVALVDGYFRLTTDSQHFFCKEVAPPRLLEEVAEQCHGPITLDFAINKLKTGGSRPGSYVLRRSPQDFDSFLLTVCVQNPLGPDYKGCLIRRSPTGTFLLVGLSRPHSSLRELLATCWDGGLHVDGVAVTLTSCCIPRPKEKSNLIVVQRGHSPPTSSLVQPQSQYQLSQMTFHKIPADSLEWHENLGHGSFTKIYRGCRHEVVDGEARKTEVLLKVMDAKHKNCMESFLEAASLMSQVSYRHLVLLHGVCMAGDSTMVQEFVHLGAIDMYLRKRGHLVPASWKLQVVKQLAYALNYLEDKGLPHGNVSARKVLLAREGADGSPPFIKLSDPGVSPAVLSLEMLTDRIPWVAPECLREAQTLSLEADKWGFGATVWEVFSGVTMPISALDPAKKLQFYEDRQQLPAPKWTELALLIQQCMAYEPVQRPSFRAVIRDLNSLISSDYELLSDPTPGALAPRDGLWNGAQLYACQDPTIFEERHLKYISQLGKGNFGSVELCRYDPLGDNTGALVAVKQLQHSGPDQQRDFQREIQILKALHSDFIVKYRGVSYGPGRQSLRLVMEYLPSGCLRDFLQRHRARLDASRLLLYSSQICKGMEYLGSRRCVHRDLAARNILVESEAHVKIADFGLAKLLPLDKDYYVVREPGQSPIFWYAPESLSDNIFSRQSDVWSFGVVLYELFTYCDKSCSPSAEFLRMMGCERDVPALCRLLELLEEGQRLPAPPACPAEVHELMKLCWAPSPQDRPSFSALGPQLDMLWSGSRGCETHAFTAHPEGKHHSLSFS
The test can be described thus: Jak3 kinase inhibition (in vitro kinase assay).

Sequence of EGFR (P00533 25-1210, species assumed): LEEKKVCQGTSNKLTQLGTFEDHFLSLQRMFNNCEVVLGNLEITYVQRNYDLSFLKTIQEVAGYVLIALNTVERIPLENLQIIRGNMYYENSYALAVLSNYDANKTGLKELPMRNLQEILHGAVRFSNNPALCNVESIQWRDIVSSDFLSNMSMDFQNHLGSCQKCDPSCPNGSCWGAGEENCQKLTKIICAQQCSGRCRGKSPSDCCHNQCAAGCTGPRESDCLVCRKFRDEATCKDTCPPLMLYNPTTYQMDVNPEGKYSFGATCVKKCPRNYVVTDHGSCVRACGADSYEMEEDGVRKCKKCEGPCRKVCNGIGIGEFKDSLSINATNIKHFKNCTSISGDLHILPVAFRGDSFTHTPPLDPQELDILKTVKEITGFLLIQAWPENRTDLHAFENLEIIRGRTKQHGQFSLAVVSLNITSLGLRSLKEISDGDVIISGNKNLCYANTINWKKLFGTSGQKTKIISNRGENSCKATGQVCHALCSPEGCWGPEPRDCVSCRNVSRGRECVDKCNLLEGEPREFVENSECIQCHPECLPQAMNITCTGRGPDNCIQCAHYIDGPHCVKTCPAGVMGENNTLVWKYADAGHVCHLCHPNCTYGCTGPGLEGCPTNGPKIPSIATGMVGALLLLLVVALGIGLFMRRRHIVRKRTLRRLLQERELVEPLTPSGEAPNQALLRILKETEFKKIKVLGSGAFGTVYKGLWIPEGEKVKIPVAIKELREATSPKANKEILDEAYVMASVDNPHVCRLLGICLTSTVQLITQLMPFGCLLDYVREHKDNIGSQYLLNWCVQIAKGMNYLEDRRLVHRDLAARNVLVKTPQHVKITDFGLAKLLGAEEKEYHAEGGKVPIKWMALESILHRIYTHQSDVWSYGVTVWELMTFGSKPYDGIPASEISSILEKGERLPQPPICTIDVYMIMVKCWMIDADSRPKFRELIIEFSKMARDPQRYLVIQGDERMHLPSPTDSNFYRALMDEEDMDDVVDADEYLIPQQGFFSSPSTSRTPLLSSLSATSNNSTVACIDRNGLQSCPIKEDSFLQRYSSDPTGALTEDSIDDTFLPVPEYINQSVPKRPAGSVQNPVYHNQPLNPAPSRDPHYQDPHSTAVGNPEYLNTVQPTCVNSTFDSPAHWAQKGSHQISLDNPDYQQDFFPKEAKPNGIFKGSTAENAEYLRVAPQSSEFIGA
Sequence of Lck (P06239 whole entry, species assumed): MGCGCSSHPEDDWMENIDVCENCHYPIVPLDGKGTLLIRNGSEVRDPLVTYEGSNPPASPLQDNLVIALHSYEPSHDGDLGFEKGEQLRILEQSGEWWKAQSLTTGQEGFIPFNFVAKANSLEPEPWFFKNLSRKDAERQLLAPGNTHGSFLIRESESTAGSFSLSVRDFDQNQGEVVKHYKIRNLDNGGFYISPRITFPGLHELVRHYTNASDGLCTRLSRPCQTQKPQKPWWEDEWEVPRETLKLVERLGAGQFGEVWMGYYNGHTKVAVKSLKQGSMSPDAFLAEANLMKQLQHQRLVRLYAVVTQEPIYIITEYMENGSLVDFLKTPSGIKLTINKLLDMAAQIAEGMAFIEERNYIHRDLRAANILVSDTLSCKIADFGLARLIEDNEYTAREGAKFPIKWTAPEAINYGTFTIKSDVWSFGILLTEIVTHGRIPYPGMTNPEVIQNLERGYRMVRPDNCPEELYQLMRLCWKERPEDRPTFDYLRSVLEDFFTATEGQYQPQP

Consider `CN(C/C=C/C(=O)N[C@H]1CC[C@H](n2nc(-c3ccc(C(=O)Nc4cc(C(F)(F)F)ccn4)cc3)c3c(N)ncnc32)CC1)C1CC1` [Example 20, 4-(4-amino-1-((1,4-trans)-4-((E)-4-(cyclopropyl(methyl)amino)but-2-enamido)cyclohexyl)-1H-pyrazolo[3,4-d]pyrimidin-3-yl)-N-(4-(trifluoromethyl)pyridin-2-yl)benzamide], for which the concentration for half-maximal inhibition (IC50) was < 1 nM in test [1], 100 to 1000 nM in test [2], < 100 nM in test [3] and > 10000 nM in test [4].
The corresponding values for `CNC/C=C/C(=O)N1CC[C@@H](n2nc(-c3ccc(C(=O)Nc4cc(C(F)(F)F)ccn4)cc3)c3c(N)ncnc32)C1` [Example 21, (R,E)-4-(4-amino-1-(1-(4-(methylamino)but-2-enoyl)pyrrolidin-3-yl)-1H-pyrazolo[3,4-d]pyrimidin-3-yl)-N-(4-(trifluoromethyl)pyridin-2-yl)benzamide] are < 1 nM, < 100 nM, < 100 nM and > 10000 nM.
The corresponding values for `CNC/C=C/C(=O)N1CC[C@@H](n2nc(-c3ccc(C(=O)Nc4cc(C)ccn4)cc3)c3c(N)ncnc32)C1` [Example 22, (R,E)-4-(4-amino-1-(1-(4-(methylamino)but-2-enoyl)pyrrolidin-3-yl)-1H-pyrazolo[3,4-d]pyrimidin-3-yl)-N-(4-methylpyridin-2-yl)benzamide] are < 1 nM, 100 to 1000 nM, 100 to 1000 nM and > 10000 nM.
The corresponding values for `Cc1ccnc(NC(=O)c2ccc(-c3nn([C@@H]4CCN(C(=O)/C=C/CNC5CC5)C4)c4ncnc(N)c34)cc2)c1` [Example 23, (R,E)-4-(4-amino-1-(1-(4-(cyclopropylamino)but-2-enoyl)pyrrolidin-3-yl)-1H-pyrazolo[3,4-d]pyrimidin-3-yl)-N-(4-methylpyridin-2-yl)benzamide] are < 1 nM, 100 to 1000 nM, 100 to 1000 nM and > 10000 nM.
Turning to `Nc1ncnc2c1c(-c1ccc(C(=O)Nc3cc(C(F)(F)F)ccn3)cc1)nn2[C@@H]1CCN(C(=O)/C=C/CNC2CC2)C1` [Example 24, (R,E)-4-(4-amino-1-(1-(4-(cyclopropylamino)but-2-enoyl)pyrrolidin-3-yl)-1H-pyrazolo[3,4-d]pyrimidin-3-yl)-N-(4-(trifluoromethyl)pyridin-2-yl)benzamide], the half-inhibitory concentration (IC50) in test [1] was < 1 nM; in test [2] it was < 100 nM; in test [3], < 100 nM; in test [4] it was > 10000 nM.
As for `Cc1ccnc(NC(=O)c2ccc(-c3nn([C@@H]4CCN(C(=O)/C=C/CN(C)C)C4)c4ncnc(N)c34)cc2)c1` [Example 25, (R,E)-4-(4-amino-1-(1-(4-(dimethylamino)but-2-enoyl)pyrrolidin-3-yl)-1H-pyrazolo[3,4-d]pyrimidin-3-yl)-N-(4-methylpyridin-2-yl)benzamide], the 50% inhibitory concentration (IC50) in test [1] is < 1 nM; in test [2], 1000 to 10000 nM; in test [3] it was > 10000 nM; in test [4], > 10000 nM.
As to `CN(C)C/C=C/C(=O)N1CC[C@@H](n2nc(-c3ccc(C(=O)Nc4cc(C(F)(F)F)ccn4)cc3)c3c(N)ncnc32)C1` [Example 26, (R,E)-4-(4-amino-1-(1-(4-(dimethylamino)but-2-enoyl)pyrrolidin-3-yl)-1H-pyrazolo[3,4-d]pyrimidin-3-yl)-N-(4-(trifluoromethyl)pyridin-2-yl)benzamide], the IC50 in test [1] is < 1 nM; in test [2], 100 to 1000 nM; in test [3], > 10000 nM; in test [4], > 10000 nM.
In the case of `Cc1ccnc(NC(=O)c2ccc(-c3nn([C@H]4CC[C@H](NC(=O)/C=C/CN(C)C)CC4)c4ncnc(N)c34)cc2)c1` [Example 28, 4-(4-amino-1-((1,4-trans)-4-((E)-4-(dimethylamino)but-2-enamido)cyclohexyl)-1H-pyrazolo[3,4-d]pyrimidin-3-yl)-N-(4-methylpyridin-2-yl)benzamide], the IC50 is < 100 nM in test [1], 100 to 1000 nM in test [2], > 10000 nM in test [3] and > 10000 nM in test [4].
For `Cc1ccnc(NC(=O)c2ccc(-c3nn([C@H]4CC[C@H](NC(=O)/C=C/CN(C)C5CC5)CC4)c4ncnc(N)c34)cc2)c1` [Example 29, 4-(4-amino-1-((1,4-trans)-4-((E)-4-(cyclopropyl(methyl)amino)but-2-enamido)cyclohexyl)-1H-pyrazolo[3,4-d]pyrimidin-3-yl)-N-(4-methylpyridin-2-yl)benzamide], the half-inhibitory concentration (IC50) is < 100 nM in test [1], 100 to 1000 nM in test [2], > 10000 nM in test [3] and > 10000 nM in test [4].
